# In patent US20070196359A1, “Halosuccinimide biocide” (Minntech Corporation, priority 2006, published 2007):
# Legend:
# [1] = test system: B. subtilis bacterial spores; test: Efficacy against bacterial endospores (FIG. 1); format: cell-based
# Experimental: The NCS biocide solution included about 1% NCS and was buffered at a pH of about 4. The NBS biocide solution included about 1% NBS and was buffered at pH about 3. […] In the case of NCS, a total kill corresponding to a 6 log reduction occurred over a period of approximately 30 minutes. In the case of NBS, a total kill corresponding to a 6 log reduction occurred over a period of approximately 60 minutes.
# M. terrae mycobacteria = test: Efficacy against mycobacteria (FIG. 2); format: cell-based; details: for time to total kill of mycobacteria: pH 7.4
# Experimental: The NCS biocide solution included about 1% NCS, was buffered at a pH of about 4 and was tested at 20° C. The NBS biocide solution included about 1% NBS, was buffered at a pH of about 3 and was tested at 20° C. Each solution produced a total kill corresponding to a 6 log reduction of the mycobacteria.
# [2] = Stability of the biocide solution over time, active ingredient by iodometric titration (FIG. 3); format: physicochemical
# Source text: The NBS biocide solution included about 1.0% NBS, 0.19% surfactant L-44 and was at a pH of about 3. The NCS biocide solution included about 1.0% NCS, 0.19% surfactant and was at a pH of about 3.
# [3] = about 1% NBS, buffered at pH about 3, 20° C
# [4] = about 1% NCS, buffered at pH about 4, 20° C
Compound,"period to total kill (6 log reduction) [1, 3]","total kill, log reduction in the bacteria [1, 3]",time to total kill (M. terrae mycobacteria; [3]),"total kill, log reduction of the mycobacteria (M. terrae mycobacteria; [3])",time to total kill of mycobacteria (M. terrae mycobacteria),"stability over time ([2]; about 1.0% NBS, 0.19% surfactant L-44, pH about 3, increasing amounts of succinimide added, best at 9.0%)","period to total kill (6 log reduction) [1, 4]","total kill, log reduction in the bacteria [1, 4]",time to total kill (M. terrae mycobacteria; [4]),"total kill, log reduction of the mycobacteria (M. terrae mycobacteria; [4])","stability over time compared to NCS alone ([2]; about 1.0% NCS, 0.19% surfactant, pH about 3, 4.8% succinimide added)"
"O=C1CCC(=O)N1Br [NBS, N-bromosuccinimide]",approximately 60 minutes,6 log,about 30 seconds,6 log,about 175 seconds,improved stability over time,–,–,–,–,–
"O=C1CCC(=O)N1Cl [NCS, N-chlorosuccinimide]",–,–,–,–,about 90 seconds,–,approximately 30 minutes,6 log,about 30 seconds,6 log,improved stability
